Patent publication US9120893B1, “Alkoxy polycarbonates, bisphenol monomers and methods of making and using the same” (SABIC Global Technologies B.V., priority 2014, dated 2015)

Assays:
[1] = target: T1, recombinant human estradiol receptors (rhER) alpha (α) (Homo sapiens, UniProt P03372); assay: in vitro competitive binding assay, displacement of radiolabeled 17b-estradiol, rhER alpha; settings: result in words; highest concentration 2.5×E-4 M
T1 sequence (P03372 1-595): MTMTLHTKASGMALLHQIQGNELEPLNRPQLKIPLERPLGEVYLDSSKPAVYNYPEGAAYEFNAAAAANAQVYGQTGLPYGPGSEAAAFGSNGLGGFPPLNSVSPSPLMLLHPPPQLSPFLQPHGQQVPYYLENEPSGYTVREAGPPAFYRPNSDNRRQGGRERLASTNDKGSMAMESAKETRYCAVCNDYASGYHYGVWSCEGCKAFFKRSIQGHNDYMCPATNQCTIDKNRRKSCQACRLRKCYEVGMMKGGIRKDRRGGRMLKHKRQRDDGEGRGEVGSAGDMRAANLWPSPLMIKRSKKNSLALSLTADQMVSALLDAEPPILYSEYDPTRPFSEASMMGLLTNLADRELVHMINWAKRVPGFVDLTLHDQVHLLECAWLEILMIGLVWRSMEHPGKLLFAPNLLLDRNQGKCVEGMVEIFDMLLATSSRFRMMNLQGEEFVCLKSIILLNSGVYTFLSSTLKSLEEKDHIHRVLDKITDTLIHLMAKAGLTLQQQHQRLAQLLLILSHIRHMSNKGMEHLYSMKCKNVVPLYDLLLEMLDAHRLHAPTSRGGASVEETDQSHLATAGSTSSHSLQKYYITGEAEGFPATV

[2] = target: recombinant human estradiol receptors (rhER) beta 1 (β1) (Homo sapiens, UniProt Q92731); assay: in vitro competitive binding assay, displacement of radiolabeled 17b-estradiol, rhER beta 1; settings: result in words; highest concentration 2.5×E-4 M
Chain of recombinant human estradiol receptors (rhER) beta 1 (β1) (Q92731 whole entry): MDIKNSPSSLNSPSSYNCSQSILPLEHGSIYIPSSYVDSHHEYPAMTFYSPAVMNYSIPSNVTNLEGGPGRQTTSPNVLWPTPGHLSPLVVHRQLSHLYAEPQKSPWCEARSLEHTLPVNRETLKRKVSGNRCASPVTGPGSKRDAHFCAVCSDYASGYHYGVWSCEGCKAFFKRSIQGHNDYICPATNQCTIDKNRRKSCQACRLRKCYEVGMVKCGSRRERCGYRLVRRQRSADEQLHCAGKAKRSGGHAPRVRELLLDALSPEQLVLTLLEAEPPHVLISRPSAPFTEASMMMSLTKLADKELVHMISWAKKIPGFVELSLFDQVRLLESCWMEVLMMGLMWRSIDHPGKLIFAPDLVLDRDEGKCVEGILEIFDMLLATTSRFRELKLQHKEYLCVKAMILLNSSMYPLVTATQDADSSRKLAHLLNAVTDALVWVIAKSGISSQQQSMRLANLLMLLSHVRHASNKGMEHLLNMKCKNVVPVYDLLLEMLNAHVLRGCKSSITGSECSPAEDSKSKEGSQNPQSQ

estradiol binding activity, alpha receptor binding [1]: no estradiol binding activity | estradiol binding activity, beta receptor binding [2]: no estradiol binding activity
SMILES: COc1cc(C(C)(C)c2ccc(O)c(OC)c2)ccc1O [compound 1, 4,4′ (2,2′-isoPropylidene)-Bis(ortho Methoxy)Phenol (PBMP)]
